Where two headings read alike, the source gives them in different places.
Legend:
[1] = Passive membrane permeability through PAMPA artificial membrane, pH 7.4; assay type: in vitro ADME; details: pH 7.4, 10 μmol, 20 hours at room temperature, mean of multiple measurements, read-out: PAMPA passive permeability Pe
Method in brief: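 Compound at 10 μmol in 0.01 M phosphate buffer pH 7.4 placed in donor wells over lecithin-phospholipid-impregnated PVDF filter, buffer in acceptor; 20 h at room temperature. Donor and acceptor levels measured by RP-HPLC-UV; Pe (cm/s) and membrane retention R (%) calculated.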

CDK7/Cyclin H/MNAT1 = CDK7/Cyclin H/MNAT1 (Homo sapiens, UniProt P50613); test: Inhibition of CDK7/Cyclin H/MNAT1 kinase activity (ADP-Glo); assay type: biochemical
CDK7/Cyclin H/MNAT1, sequence (P50613 whole entry): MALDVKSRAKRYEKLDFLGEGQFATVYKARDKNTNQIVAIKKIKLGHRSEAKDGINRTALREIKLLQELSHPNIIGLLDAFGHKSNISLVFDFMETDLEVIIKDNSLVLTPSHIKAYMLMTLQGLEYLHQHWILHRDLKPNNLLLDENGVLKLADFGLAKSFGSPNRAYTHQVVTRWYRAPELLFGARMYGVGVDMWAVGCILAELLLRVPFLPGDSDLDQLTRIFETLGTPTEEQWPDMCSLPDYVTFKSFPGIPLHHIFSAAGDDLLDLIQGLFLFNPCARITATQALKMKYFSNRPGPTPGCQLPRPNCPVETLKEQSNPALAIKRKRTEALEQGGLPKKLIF
CDK7/Cyclin H/MNAT1, sequence (P51946 whole entry partner): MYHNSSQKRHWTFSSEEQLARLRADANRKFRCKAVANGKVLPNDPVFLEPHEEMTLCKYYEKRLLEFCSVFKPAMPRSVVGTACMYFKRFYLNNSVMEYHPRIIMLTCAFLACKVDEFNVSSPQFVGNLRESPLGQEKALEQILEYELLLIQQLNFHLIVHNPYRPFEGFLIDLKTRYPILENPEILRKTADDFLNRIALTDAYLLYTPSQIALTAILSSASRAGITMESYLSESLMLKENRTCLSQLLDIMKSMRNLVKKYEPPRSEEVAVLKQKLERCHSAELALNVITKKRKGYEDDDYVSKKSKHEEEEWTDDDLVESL
CDK7/Cyclin H/MNAT1, sequence (P51948 whole entry partner): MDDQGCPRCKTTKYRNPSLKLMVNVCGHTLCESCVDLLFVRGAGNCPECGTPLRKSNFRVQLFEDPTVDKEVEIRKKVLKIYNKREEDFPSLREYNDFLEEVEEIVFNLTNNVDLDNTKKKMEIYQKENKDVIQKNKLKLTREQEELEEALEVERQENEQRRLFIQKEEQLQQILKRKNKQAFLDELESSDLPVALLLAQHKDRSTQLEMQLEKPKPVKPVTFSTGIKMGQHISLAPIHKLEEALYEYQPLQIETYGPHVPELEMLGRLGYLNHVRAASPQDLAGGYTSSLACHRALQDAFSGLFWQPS
Method in brief: (§1)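 Kinase preincubated with compound (11 points, 4-fold steps from 50 μM) for 10 minutes at 25° C. in kinase buffer A with DTT, then reacted 40-60 minutes at 25° C. with ATP and CDKtide, Histone H1 or PDKtide substrate. ADP formation read by ADP-Glo luminescence; IC50 from four-parameter fit.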

[2] = Microsomal stability in mouse liver microsomes (MLM); assay type: in vitro ADME; details: mouse liver microsomes 0.5 mg/ml, 1 μM compound, NADPH
Description: The procedure for investigating the metabolism of selected compounds was carried out in microsomal fractions of the liver (of rats, mice, humans) in the presence of a phase I metabolism cofactor (NADPH).
The rate of enzymatic decomposition of the compound in liver microsomes in in vitro analysis was determined by keeping a reaction mixture comprising 0.5 mg/ml of pooled human, rat or mouse liver microsomes, 1 μM test compound, 1.5 mM […] (Carbosynth, UK, cat. no. NN108711101) and 1.5 mM magnesium chloride in 0.1 M sodium phosphate buffer (pH 7.4) in a solid-state thermostat at 37° C. (XenoTech, USA, order no. H2610, cat. no. R1000, cat. no. M1000). Incubation was carried out in three replicates.
To determine the stability of compounds under sample preparation conditions, an aliquot in two replicates with the test compound and a microsomal fraction devoid of the NADPH cofactor, which was incubated for 40 minutes at 37° C.
Reactions were stopped at 0, 10, 20, 30 and 40 min time points by way of adding an ice mixture of acetonitrile:methanol (3:1) comprising an internal standard.
Samples were then centrifuged to remove the precipitated protein, supernatants were analyzed using HPLC-MS/MS to determine in vitro clearance (CLint) of the compounds. The Agilent 6410 mass spectrometer (Agilent, USA) combined with the Agilent 1260 Infinity II HPLC liquid chromatograph (Agilent, USA) and a cooling autosampler controlled by MassHunter software (Agilent, USA) was used as an HPLC-MS/MS system. Chromatographic analysis was performed on a C18 reversed-phase HPLC column (Agilent, Waters or equivalent) in a gradient elution mode in a system of mobile phases: 0.1% formic acid in water/0.1% formic acid in acetonitrile, flow rate: 0.5 ml/min, column T=35° C. Mass spectrometric detection was performed with electrospray ionization in multiple reaction monitoring mode. Precursor ions, fragment ions and collision energies for each substance were selected experimentally.
A graph of dependence of the logarithmic ratio between substance's peak area and internal standard's peak area vs time was built. The dependent coefficient of this line corresponded to the elimination rate constant k, on the basis of which the in vitro clearance CLint was calculated:
Based on resulting in vitro clearance CLint values, the microsomal stability of the selected compounds for humans, rats and mice was concluded.

CDK9/Cyclin K = CDK9/Cyclin K (Homo sapiens, UniProt P50750); test: Inhibition of CDK9/Cyclin K kinase activity (ADP-Glo); assay type: biochemical
CDK9/Cyclin K, sequence (P50750 whole entry): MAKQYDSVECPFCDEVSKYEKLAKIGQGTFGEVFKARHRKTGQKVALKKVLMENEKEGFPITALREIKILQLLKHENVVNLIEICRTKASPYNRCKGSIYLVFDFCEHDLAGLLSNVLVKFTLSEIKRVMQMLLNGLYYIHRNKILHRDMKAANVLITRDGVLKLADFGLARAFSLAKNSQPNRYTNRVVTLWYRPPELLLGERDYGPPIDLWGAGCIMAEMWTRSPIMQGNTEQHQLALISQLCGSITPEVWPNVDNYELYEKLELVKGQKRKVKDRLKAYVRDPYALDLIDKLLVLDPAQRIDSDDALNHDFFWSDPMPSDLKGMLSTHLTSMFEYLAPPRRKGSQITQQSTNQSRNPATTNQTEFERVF
CDK9/Cyclin K, sequence (O75909 whole entry partner): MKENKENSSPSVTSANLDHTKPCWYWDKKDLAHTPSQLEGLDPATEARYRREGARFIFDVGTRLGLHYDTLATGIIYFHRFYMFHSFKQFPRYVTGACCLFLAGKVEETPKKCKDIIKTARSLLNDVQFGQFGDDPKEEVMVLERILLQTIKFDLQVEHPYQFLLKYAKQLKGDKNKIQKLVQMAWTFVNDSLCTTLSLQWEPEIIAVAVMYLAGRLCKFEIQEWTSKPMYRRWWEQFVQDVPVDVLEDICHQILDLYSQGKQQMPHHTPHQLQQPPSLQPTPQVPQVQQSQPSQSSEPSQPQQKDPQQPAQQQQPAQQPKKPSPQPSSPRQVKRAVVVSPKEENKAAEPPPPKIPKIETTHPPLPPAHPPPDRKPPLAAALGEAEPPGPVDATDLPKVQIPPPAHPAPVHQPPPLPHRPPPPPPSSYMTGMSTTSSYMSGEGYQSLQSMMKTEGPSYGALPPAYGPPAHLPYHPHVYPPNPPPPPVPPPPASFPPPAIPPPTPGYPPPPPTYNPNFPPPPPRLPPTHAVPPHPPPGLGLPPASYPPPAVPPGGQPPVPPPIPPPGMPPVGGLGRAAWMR
Method in brief: as §1

[3] = General cytotoxicity on primary differentiated HepaRG cells (72 h); assay type: cell-based; details: human, general toxicity, mean value from several measurements
Method in brief: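 Differentiated HepaRG cells, maintained a week in basal hepatic medium with maintenance/metabolism supplement, were plated at 25×10^3 cells/well overnight. Compounds (200 μM to 0.2 nM) were added for 72 h before viability readout.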

[4] = mean of multiple measurement series, ATP 10 μM, read-out: CDK7/Cyclin H/MNAT1 IC50
[5] = mean value from several measurements, read-out: IC50 CDK7/Cyclin H/MNAT
[6] = mean of multiple measurement series, ATP 50 μM, read-out: CDK9/Cyclin K IC50
[7] = mean value from several measurements, read-out: IC50 CDK9/Cyclin K

Row | Papp at 20 h, 10 μmol [1] | IC50 (CDK7/Cyclin H/MNAT1; [4]) | IC50 (CDK7/Cyclin H/MNAT1; [5]) | MLM Clint [2] | IC50 (CDK9/Cyclin K; [6]) | IC50 (CDK9/Cyclin K; [7]) | SMILES | CC50 at 72 h [3]
1 | 1 to 5 ×10⁻⁶ cm/s | < 5 nM | < 5 nM | A (Clint < 20 μl/(min · mg of protein)) | 441 nM | > 200 nM | CC1(C)CC[C@H](Nc2ncc(C(F)(F)F)c(-c3c[nH]c4c3CCCN(C3CC3)C4=O)n2)CN1 [CDK7_1225, 7-cyclopropyl-3-(2-{[(3S)-6,6-dimethylpiperidin-3-yl]amino}-5-(trifluoromethyl)py-rimidin-4-yl)-1H,4H,5H,6H,7H, 8H-pyrrolo[2,3-c]azepin-8-one] | > 2000 nM
2 | 5 to 10 ×10⁻⁶ cm/s | < 5 nM | < 5 nM | A (Clint < 20 μl/(min · mg of protein)) | 485 nM | > 200 nM | CC(C)N1CCCc2c(-c3nc(N[C@H]4CCC(C)(C)NC4)ncc3C(F)(F)F)c[nH]c2C1=O [CDK7_1229, 3-(2-{[(3S)-6,6-dimethylpiperidin-3-yl]amino}-5-(trifluoromethyl)py-rimidin-4-yl)-7-(propan-2-yl)-1H,4H,5H,6H,7H, 8H-pyrrolo[2,3-c]azepin-8-one] | > 2000 nM
3 | 1 to 5 ×10⁻⁶ cm/s | – | < 5 nM | – | – | > 200 nM | CC1CCc2c(-c3nc(N[C@H]4CCCNC4)ncc3C(F)(F)F)c[nH]c2C(=O)N1C (stereo partly drawn) [CDK7_1254, 6,7-dimethyl-3-(2-{[(3S)-piperidin-3-yl]amino}-5-(trifluoromethyl)py-rimidin-4-yl)-1H,4H,5H,6H,7H, 8H-pyrrolo[2,3-c]azepin-8-one] | > 2000 nM

Further lines, the molecule ahead of its results:

Row | SMILES | Papp at 20 h, 10 μmol [1] | IC50 (CDK7/Cyclin H/MNAT1; [4]) | IC50 (CDK7/Cyclin H/MNAT1; [5]) | MLM Clint [2] | IC50 (CDK9/Cyclin K; [6]) | IC50 (CDK9/Cyclin K; [7]) | CC50 at 72 h [3]
4 | CN1CCCc2c(-c3nc(N[C@H]4CCC(C)(C)NC4)ncc3C(F)(F)F)c[nH]c2C1=O [CDK7_1187, 3-(2-{[(3S)-6,6-dimethylpiperidin-3-yl]amino}-5-(trifluoromethyl)py-rimidin-4-yl)-7-methyl-1H,4H,5H,6H,7H, 8H-pyrrolo[2,3-c]azepin-8-one] | 1 to 5 ×10⁻⁶ cm/s | < 5 nM | < 5 nM | A (Clint < 20 μl/(min · mg of protein)) | 182 nM | > 200 nM | > 2000 nM
5 | O=C1c2[nH]cc(-c3nc(NC4CCCNC4)ncc3C(F)(F)F)c2CCCN1C1CC1 (centres unmarked) [CDK7_1188] | 1 to 5 ×10⁻⁶ cm/s | – | < 5 nM | – | – | > 200 nM | > 2000 nM
6 | CC1(C)CC[C@H](Nc2ncc(C(F)(F)F)c(-c3c[nH]c4c3CCCN(CC3CC3)C4=O)n2)CN1 [CDK7_1227, 7-(cyclopropylmeth-yl)-3-(2-{[(3S)-6,6-dimethylpiperidin-3-yl]amino}-5-(trifluoromethyl)py-rimidin-4-yl)-1H,4H,5H,6H,7H, 8H-pyrrolo[2,3-c]azepin-8-one] | 5 to 10 ×10⁻⁶ cm/s | – | < 5 nM | – | – | > 200 nM | > 2000 nM
7 | CCN1CCCc2c(-c3nc(N[C@H]4CCC(C)(C)NC4)ncc3C(F)(F)F)c[nH]c2C1=O [CDK7_1259, 3-(2-{[(3S)-6,6-dimethylpiperidin-3-yl]amino}-5-(trifluoromethyl)py-rimidin-4-yl)-7-ethyl-1H,4H,5H,6H,7H, 8H-pyrrolo[2,3-c]azepin-8-one] | 1 to 5 ×10⁻⁶ cm/s | – | < 5 nM | – | – | > 200 nM | > 2000 nM
8 | O=C1c2[nH]cc(-c3nc(N[C@H]4CCC5(CC5)NC4)ncc3C(F)(F)F)c2CCCN1C1CC1 [CDK7_1276, 3-(2-{[(6S)-4-azaspiro[2.5]octan-6-yl]amino}-5-(trifluoromethyl)py-rimidin-4-yl)-7-cyclopropyl-1H,4H,5H,6H,7H, 8H-pyrrolo[2,3-c]azepin-8-one] | 5 to 10 ×10⁻⁶ cm/s | < 5 nM | < 5 nM | B (50 μl/(min · mg of protein) > Clint > 20 μl/(min · mg of protein)) | 296 nM | > 200 nM | > 2000 nM
